# Test results reported in PubChem BioAssay (NCI).
#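 Results reflect a 48-hour exposure of cells in 96-well plates to compound at five concentrations. Abbreviation: GI50, concentration required for 50% inhibition of growth. TGI: concentration producing complete growth inhibition.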
# Tests used:
# Test in all cases: NCI tumour cell line growth inhibition, 48 h
# NCI/ADR-RES ovarian = tested on: NCI/ADR-RES ovarian
# U251 CNS = tested on: U251 CNS
# ACHN renal = tested on: ACHN renal
# NCI-H23 lung = tested on: NCI-H23 lung
# SK-MEL-28 melanoma = tested on: SK-MEL-28 melanoma
# K-562 leukemia = tested on: K-562 leukemia
# SNB-19 CNS = tested on: SNB-19 CNS
# NCI-H226 lung = tested on: NCI-H226 lung
# CAKI-1 renal = tested on: CAKI-1 renal
# SR leukemia = tested on: SR leukemia
# SN12C renal = tested on: SN12C renal
# MALME-3M melanoma = tested on: MALME-3M melanoma
# PC-3 prostate = tested on: PC-3 prostate
# HCC-2998 colon = tested on: HCC-2998 colon
# OVCAR-8 ovarian = tested on: OVCAR-8 ovarian
# HOP-92 NSCLC = tested on: HOP-92 NSCLC
# A498 renal = tested on: A498 renal
# HT29 colon = tested on: HT29 colon
# UACC-62 melanoma = tested on: UACC-62 melanoma
# NCI-H522 lung = tested on: NCI-H522 lung
# SK-MEL-2 melanoma = tested on: SK-MEL-2 melanoma
# SF-295 CNS = tested on: SF-295 CNS
# RPMI-8226 leukemia = tested on: RPMI-8226 leukemia
# SNB-75 CNS = tested on: SNB-75 CNS
# SK-MEL-5 melanoma = tested on: SK-MEL-5 melanoma
# KM12 colon = tested on: KM12 colon
# HCT-15 colon = tested on: HCT-15 colon
# NCI-H460 lung = tested on: NCI-H460 lung
# HS 578T breast = tested on: HS 578T breast
# HCT-116 colon = tested on: HCT-116 colon
# OVCAR-5 ovarian = tested on: OVCAR-5 ovarian
# HL-60(TB) leukemia = tested on: HL-60(TB) leukemia
# SF-539 CNS = tested on: SF-539 CNS
# SF-268 CNS = tested on: SF-268 CNS
# T-47D breast = tested on: T-47D breast
# IGROV1 ovarian = tested on: IGROV1 ovarian
# TK-10 renal = tested on: TK-10 renal
# UO-31 renal = tested on: UO-31 renal
# COLO 205 colon = tested on: COLO 205 colon
# OVCAR-3 ovarian = tested on: OVCAR-3 ovarian
# MOLT-4 leukemia = tested on: MOLT-4 leukemia
# MCF7 breast = tested on: MCF7 breast
# SW-620 colon = tested on: SW-620 colon
# UACC-257 melanoma = tested on: UACC-257 melanoma
# HOP-62 NSCLC = tested on: HOP-62 NSCLC
# SK-OV-3 ovarian = tested on: SK-OV-3 ovarian
# DU-145 prostate = tested on: DU-145 prostate
# BT-549 breast = tested on: BT-549 breast
# M14 melanoma = tested on: M14 melanoma
# 786-0 renal = tested on: 786-0 renal
# MDA-MB-435 = tested on: MDA-MB-435
# RXF 393 renal = tested on: RXF 393 renal
# EKVX NSCLC = tested on: EKVX NSCLC
# A549 NSCLC = tested on: A549 NSCLC
# MDA-MB-231 breast = tested on: MDA-MB-231 breast
# OVCAR-4 ovarian = tested on: OVCAR-4 ovarian
# LOX IMVI melanoma = tested on: LOX IMVI melanoma
smiles,measurement,setting,value
Oc1c(Br)cc(Br)c2ccc(Cn3cc(-c4ccc(C(F)(F)F)cc4)nn3)nc12,GI50,NCI/ADR-RES ovarian,21.1 µM
same,TGI,NCI/ADR-RES ovarian,71.7 µM
same,GI50,U251 CNS,4.42 µM
same,TGI,U251 CNS,16.5 µM
same,GI50,ACHN renal,1.38 µM
same,TGI,ACHN renal,2.7 µM
same,GI50,NCI-H23 lung,2.31 µM
same,TGI,NCI-H23 lung,6.18 µM
same,GI50,SK-MEL-28 melanoma,1.7 µM
same,TGI,SK-MEL-28 melanoma,3.44 µM
same,GI50,K-562 leukemia,0.41 µM
same,TGI,K-562 leukemia,11.8 µM
same,GI50,SNB-19 CNS,11.1 µM
same,TGI,SNB-19 CNS,24.5 µM
same,GI50,NCI-H226 lung,4.46 µM
same,TGI,NCI-H226 lung,19.7 µM
same,GI50,CAKI-1 renal,1.27 µM
same,TGI,CAKI-1 renal,2.69 µM
same,GI50,SR leukemia,0.794 µM
same,TGI,SR leukemia,5.86 µM
same,GI50,SN12C renal,3.53 µM
same,TGI,SN12C renal,14.4 µM
same,GI50,MALME-3M melanoma,1.65 µM
same,TGI,MALME-3M melanoma,3.67 µM
same,GI50,PC-3 prostate,2.9 µM
same,TGI,PC-3 prostate,12.4 µM
same,GI50,HCC-2998 colon,8.87 µM
same,TGI,HCC-2998 colon,22.6 µM
same,GI50,OVCAR-8 ovarian,2.62 µM
same,TGI,OVCAR-8 ovarian,7.76 µM
same,GI50,HOP-92 NSCLC,1.52 µM
same,TGI,HOP-92 NSCLC,4.4 µM
same,GI50,A498 renal,3.36 µM
same,TGI,A498 renal,13.8 µM
same,GI50,HT29 colon,1.92 µM
same,TGI,HT29 colon,4.55 µM
same,GI50,UACC-62 melanoma,3.4 µM
same,TGI,UACC-62 melanoma,14.4 µM
same,GI50,NCI-H522 lung,1.08 µM
same,TGI,NCI-H522 lung,3.01 µM
same,GI50,SK-MEL-2 melanoma,2.73 µM
same,TGI,SK-MEL-2 melanoma,9.67 µM
same,GI50,SF-295 CNS,17.2 µM
same,TGI,SF-295 CNS,31.2 µM
same,GI50,RPMI-8226 leukemia,1.59 µM
same,TGI,RPMI-8226 leukemia,5.6 µM
same,GI50,SNB-75 CNS,1.49 µM
same,TGI,SNB-75 CNS,8.04 µM
same,GI50,SK-MEL-5 melanoma,3.16 µM
same,TGI,SK-MEL-5 melanoma,11.7 µM
same,GI50,KM12 colon,8.84 µM
same,TGI,KM12 colon,21.4 µM
same,GI50,HCT-15 colon,1.56 µM
same,TGI,HCT-15 colon,3.46 µM
same,GI50,NCI-H460 lung,19 µM
same,TGI,NCI-H460 lung,37.3 µM
same,GI50,HS 578T breast,3.03 µM
same,TGI,HS 578T breast,10.3 µM
same,GI50,HCT-116 colon,0.586 µM
same,TGI,HCT-116 colon,2.05 µM
same,GI50,OVCAR-5 ovarian,3.45 µM
same,TGI,OVCAR-5 ovarian,12.9 µM
same,GI50,HL-60(TB) leukemia,0.674 µM
same,TGI,HL-60(TB) leukemia,3.06 µM
same,GI50,SF-539 CNS,1.59 µM
same,TGI,SF-539 CNS,3.01 µM
same,GI50,SF-268 CNS,4.7 µM
same,TGI,SF-268 CNS,17.9 µM
same,GI50,T-47D breast,1.72 µM
same,TGI,T-47D breast,5.84 µM
same,GI50,IGROV1 ovarian,1.49 µM
same,TGI,IGROV1 ovarian,3.25 µM
same,GI50,TK-10 renal,1.82 µM
same,TGI,TK-10 renal,3.79 µM
same,GI50,UO-31 renal,1.68 µM
same,TGI,UO-31 renal,5.03 µM
same,GI50,COLO 205 colon,1.28 µM
same,TGI,COLO 205 colon,2.93 µM
same,GI50,OVCAR-3 ovarian,1.42 µM
same,TGI,OVCAR-3 ovarian,2.8 µM
same,GI50,MOLT-4 leukemia,1.01 µM
same,TGI,MOLT-4 leukemia,5.76 µM
same,GI50,MCF7 breast,0.532 µM
same,TGI,MCF7 breast,2.36 µM
same,GI50,SW-620 colon,0.548 µM
same,TGI,SW-620 colon,2.13 µM
same,GI50,UACC-257 melanoma,1.31 µM
same,TGI,UACC-257 melanoma,3.19 µM
same,GI50,HOP-62 NSCLC,15.6 µM
same,TGI,HOP-62 NSCLC,30.8 µM
same,GI50,SK-OV-3 ovarian,17.8 µM
same,TGI,SK-OV-3 ovarian,32.1 µM
same,GI50,DU-145 prostate,1.67 µM
same,TGI,DU-145 prostate,3.19 µM
same,GI50,BT-549 breast,2.16 µM
same,TGI,BT-549 breast,5.98 µM
same,GI50,M14 melanoma,1.81 µM
same,TGI,M14 melanoma,4.44 µM
same,GI50,786-0 renal,1.92 µM
same,TGI,786-0 renal,4.54 µM
same,GI50,MDA-MB-435,1.85 µM
same,TGI,MDA-MB-435,4.39 µM
same,GI50,RXF 393 renal,0.662 µM
same,TGI,RXF 393 renal,2.17 µM
same,GI50,EKVX NSCLC,7.43 µM
same,TGI,EKVX NSCLC,20.9 µM
same,GI50,A549 NSCLC,16.6 µM
same,TGI,A549 NSCLC,34.3 µM
same,GI50,MDA-MB-231 breast,2.06 µM
same,TGI,MDA-MB-231 breast,5.02 µM
same,GI50,OVCAR-4 ovarian,1.45 µM
same,TGI,OVCAR-4 ovarian,3.11 µM
same,GI50,LOX IMVI melanoma,0.379 µM
same,TGI,LOX IMVI melanoma,1.52 µM
